Measured values as given in the supplement of paper PMC11208160.

Assay: recombinant barcode read abundance after kanamycin selection (control-corrected) (log10(CPM+1)); higher = more efficient recombination; sequences stand for … in AGTGCAGAGAAAATCGGCCAGTTTTCTCTGCCTGCAGTCCGCATGCCGT…ATTTATGCAGCGGACTGCCTTTCTCCCAAAGTGATAAACCGGACAGTATCATGGACCGGTTTTCCCGGTAATCCGTATTTGCAAGGTTGGTTTCACT; site = the 11-nt target
Outline: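 Reported as log10(CPM+1), each value stands for recombination efficiency. That efficiency is the averaged, control-corrected counts per million of barcodes found at recombinant junctions. Cells from a pooled E. coli library pairing targets with IS621 bridge RNA target-binding loops were plated twice on chloramphenicol/ampicillin LB agar (control) and twice on chloramphenicol/ampicillin/kanamycin with 0.1 mM IPTG.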

Row | Sequence | recombinant barcode read abundance (log10)
1 | GGGCGTGAGTGGGTTCTAACCTGTTGCCTAG [GGGCGTGCTAG_LTGcore_AG_RTGcore_CT] (site GGGCGTGCTAG) (LTG core: AG, RTG core: CT) | 0.154
2 | GGGCGTGATTGGGTTCTAACCTGTTGCCTAT [GGGCGTGCTAG_LTGcore_AT_RTGcore_AT] (site GGGCGTGCTAG) (LTG core: AT, RTG core: AT) | 0.0806
3 | GGGCGTGCTTGGGTTCTAACCTGTTGCCTCA [GGGCGTGCTAG_LTGcore_CT_RTGcore_TG] (site GGGCGTGCTAG) (LTG core: CT, RTG core: TG) | 1.06
4 | GGGCGTGCTTGGGTTCTAACCTGTTGCCTGG [GGGCGTGCTAG_LTGcore_CT_RTGcore_CC] (site GGGCGTGCTAG) (LTG core: CT, RTG core: CC) | 0.301
5 | GGGCGTGCTTGGGTTCTAACCTGTTGCCTTG [GGGCGTGCTAG_LTGcore_CT_RTGcore_CA] (site GGGCGTGCTAG) (LTG core: CT, RTG core: CA) | 0.0774
6 | GGGCGTGGATGGGTTCTAACCTGTTGCCTTC [GGGCGTGCTAG_LTGcore_GA_RTGcore_GA] (site GGGCGTGCTAG) (LTG core: GA, RTG core: GA) | 0.0142
7 | GGGCGTGGCTGGGTTCTAACCTGTTGCCTGC [GGGCGTGCTAG_LTGcore_GC_RTGcore_GC] (site GGGCGTGCTAG) (LTG core: GC, RTG core: GC) | 0
8 | GGGCGTGGGTGGGTTCTAACCTGTTGCCTAG [GGGCGTGCTAG_LTGcore_GG_RTGcore_CT] (site GGGCGTGCTAG) (LTG core: GG, RTG core: CT) | 0.188
9 | GGGCGTGGTTGGGTTCTAACCTGTTGCCTAG [GGGCGTGCTAG_LTGcore_GT_RTGcore_CT] (site GGGCGTGCTAG) (LTG core: GT, RTG core: CT) | 0.0791
10 | GGGCGTGTCTGGGTTCTAACCTGTTGCCTAG [GGGCGTGCTAG_LTGcore_TC_RTGcore_CT] (site GGGCGTGCTAG) (LTG core: TC, RTG core: CT) | 0.241
11 | GGGCGTGTTTGGGTTCTAACCTGTTGCCTAA [GGGCGTGCTAG_LTGcore_TT_RTGcore_TT] (site GGGCGTGCTAG) (LTG core: TT, RTG core: TT) | 0.0616
12 | GGTGCCCAATGGGTTCTAACCTGTTGCCGTT [GGTGCCCCTCG_LTGcore_AA_RTGcore_AA] (site GGTGCCCCTCG) (LTG core: AA, RTG core: AA) | 0.404
13 | GGTGCCCATTGGGTTCTAACCTGTTGCCGAT [GGTGCCCCTCG_LTGcore_AT_RTGcore_AT] (site GGTGCCCCTCG) (LTG core: AT, RTG core: AT) | 0.0482
14 | GGTGCCCCCTGGGTTCTAACCTGTTGCCGAG [GGTGCCCCTCG_LTGcore_CC_RTGcore_CT] (site GGTGCCCCTCG) (LTG core: CC, RTG core: CT) | 0.15
15 | GGTGCCCCCTGGGTTCTAACCTGTTGCCGGG [GGTGCCCCTCG_LTGcore_CC_RTGcore_CC] (site GGTGCCCCTCG) (LTG core: CC, RTG core: CC) | 0.387
16 | GGTGCCCCGTGGGTTCTAACCTGTTGCCGAG [GGTGCCCCTCG_LTGcore_CG_RTGcore_CT] (site GGTGCCCCTCG) (LTG core: CG, RTG core: CT) | 0.0559
17 | GGTGCCCCGTGGGTTCTAACCTGTTGCCGCG [GGTGCCCCTCG_LTGcore_CG_RTGcore_CG] (site GGTGCCCCTCG) (LTG core: CG, RTG core: CG) | 0.329

Row | Sequence | recombinant barcode read abundance (log10)
18 | GGTGCCCCTTGGGTTCTAACCTGTTGCCGGA [GGTGCCCCTCG_LTGcore_CT_RTGcore_TC] (site GGTGCCCCTCG) (LTG core: CT, RTG core: TC) | 0.0539
19 | GGTGCCCCTTGGGTTCTAACCTGTTGCCGGG [GGTGCCCCTCG_LTGcore_CT_RTGcore_CC] (site GGTGCCCCTCG) (LTG core: CT, RTG core: CC) | 0.295
20 | GGTGCCCCTTGGGTTCTAACCTGTTGCCGTG [GGTGCCCCTCG_LTGcore_CT_RTGcore_CA] (site GGTGCCCCTCG) (LTG core: CT, RTG core: CA) | 0.126
21 | GGTGCCCGCTGGGTTCTAACCTGTTGCCGGC [GGTGCCCCTCG_LTGcore_GC_RTGcore_GC] (site GGTGCCCCTCG) (LTG core: GC, RTG core: GC) | 0.148
22 | GGTGCCCTATGGGTTCTAACCTGTTGCCGTA [GGTGCCCCTCG_LTGcore_TA_RTGcore_TA] (site GGTGCCCCTCG) (LTG core: TA, RTG core: TA) | 0.298
23 | GGTGCCCTGTGGGTTCTAACCTGTTGCCGAG [GGTGCCCCTCG_LTGcore_TG_RTGcore_CT] (site GGTGCCCCTCG) (LTG core: TG, RTG core: CT) | 0.108
24 | GTCGCCCAATGGGTTCTAACCTGTTGCTATT [GTCGCCCCTTA_LTGcore_AA_RTGcore_AA] (site GTCGCCCCTTA) (LTG core: AA, RTG core: AA) | 0.305
25 | GTCGCCCCGTGGGTTCTAACCTGTTGCTACG [GTCGCCCCTTA_LTGcore_CG_RTGcore_CG] (site GTCGCCCCTTA) (LTG core: CG, RTG core: CG) | 0.316
26 | GTCGCCCCTTGGGTTCTAACCTGTTGCTAAC [GTCGCCCCTTA_LTGcore_CT_RTGcore_GT] (site GTCGCCCCTTA) (LTG core: CT, RTG core: GT) | 0.102
27 | GTCGCCCCTTGGGTTCTAACCTGTTGCTAAG [GTCGCCCCTTA_LTGcore_CT_RTGcore_CT] (site GTCGCCCCTTA) (LTG core: CT, RTG core: CT) | 0.234
28 | GTCGCCCCTTGGGTTCTAACCTGTTGCTATA [GTCGCCCCTTA_LTGcore_CT_RTGcore_TA] (site GTCGCCCCTTA) (LTG core: CT, RTG core: TA) | 0.0812
29 | GTCGCCCCTTGGGTTCTAACCTGTTGCTATG [GTCGCCCCTTA_LTGcore_CT_RTGcore_CA] (site GTCGCCCCTTA) (LTG core: CT, RTG core: CA) | 0.725
30 | GTCGCCCCTTGGGTTCTAACCTGTTGCTATT [GTCGCCCCTTA_LTGcore_CT_RTGcore_AA] (site GTCGCCCCTTA) (LTG core: CT, RTG core: AA) | 0.214
31 | GTCGCCCGGTGGGTTCTAACCTGTTGCTAAG [GTCGCCCCTTA_LTGcore_GG_RTGcore_CT] (site GTCGCCCCTTA) (LTG core: GG, RTG core: CT) | 0.0246
32 | GTCGCCCGTTGGGTTCTAACCTGTTGCTAAC [GTCGCCCCTTA_LTGcore_GT_RTGcore_GT] (site GTCGCCCCTTA) (LTG core: GT, RTG core: GT) | 0.146
33 | GTCGCCCTATGGGTTCTAACCTGTTGCTATA [GTCGCCCCTTA_LTGcore_TA_RTGcore_TA] (site GTCGCCCCTTA) (LTG core: TA, RTG core: TA) | 0.394
34 | GTCGCCCTTTGGGTTCTAACCTGTTGCTAAA [GTCGCCCCTTA_LTGcore_TT_RTGcore_TT] (site GTCGCCCCTTA) (LTG core: TT, RTG core: TT) | 0.0974
